Source: patent US12653776B2, “Methods of treatment of cancer by continuous infusion of coenzyme Q10” (priority 2013, dated 2026)

Experiments:
[1] = tested on: cancer cell lines HT-29, A549, Hep3B, MDA-MB231, SkBr-3, MCF7, MiaPaCa-2, SKOV-3, PC-3; assay: Cancer cell line viability in vitro; type: cell-based; details: 100 μM coenzyme Q10; evident as early as 24 hours, increased progressively between 48 and 72 hours; all cell lines tested
Procedure: Various cancer cell lines were treated with coenzyme Q10 at 100 μM concentration to determine the effect on cancer cell viability. The cancer cell lines tested were HT-29 (colon), A549 (lung), Hep3B (liver), MDA-MB231 (breast), SkBr-3 (breast), MCF7 (breast), MiaPaCa-2 (pancreas), SKOV-3 (ovary), and PC-3 (prostate). Cell viability was measured between 24 and 72 hours. […] For example. […] The text at the bottom of the graph in FIG. 6 represents the gene mutation and mutation rate for each cell line. For example, the HT-29 cell line contains the APC mutation with a mutation rate of 126.

[2] = tested on: MIAPaCa-2 human pancreatic tumor cells; assay: Pancreatic cancer (MIAPaCa-2) mouse model, survival; type: in vivo, NOD scid gamma (NSG) mice
Procedure: For example, FIG. 7 is a schematic describing a study investigating three different dosing regimens for coenzyme Q10 in an animal model of pancreatic cancer. The effect of coenzyme Q10 alone or in combination with gemcitabine on total survival in a preclinical mouse model of pancreatic cancer was evaluated.
Equal numbers of MIAPaCa-2 human pancreatic tumor cells were suspended in […]® and injected into NOD scid gamma (NSG) mice. The NSG mouse model is devoid of innate and adaptive immune systems and provides a biological environment suitable for the growth of human tumors in vivo. The MIAPaCa-2 is a well established human derived pancreatic carcinoma cell line that can be used to establish pancreatic tumors in immunosuppressed animals. MIAPaca-2 tumors were allowed to develop for, on average, at least 3 weeks in mice prior to initiation of treatment. Animals with palpable tumors were randomized into treatment groups.
The three treatment regimens utilized for the study included once/daily, twice/daily or thrice/daily dosing of coenzyme Q10 at either 50 mg/kg body weight (Regimen 1 & Regimen 2) or 50 mg/kg or 75 mg/kg body weight (Regimen 3) alone or in combination with a fixed dose of gemcitabine (150) mg/kg body weight). For example, mice treated twice/daily received two 50 mg/kg doses of coenzyme Q10, for a total of 100 mg/kg/day, and mice treated thrice daily received three 50 mg/kg doses of coenzyme Q10 for a total of 150 mg/kg/day. Each group of animals received chemotherapeutic treatment for a minimum of three cycles and was maintained to determine outcomes.
Next, a continuous infusion protocol was implemented to determine the effect of constant coenzyme Q10 administration on survival in an animal model of pancreatic cancer. An infusion pump was surgically installed in the animals to facilitate continuous infusion of coenzyme Q10 at a dose of 25 mg/kg, 50 mg/kg or 100 mg/kg body weight per day. Treatment was continued throughout the entire duration of the study.

[3] = tested on: LnCaP human prostate adenocarcinoma cells; assay: Prostate cancer (LnCaP) mouse model, survival; type: in vivo, immunocompromised mice
Procedure: The observed improvement in animal cohorts administered coenzyme Q10 as a continuous infusion was repeated in other animal models of cancer. For example. […] LnCaP human prostate adenocarcinoma cells were injected into immunocompromised mice. Coenzyme Q10 was administered using two different dosing regimens. One cohort was administered a total dose of 75 mg/kg body weight per day by dosing 25 mg/kg body weight every 8 hours (multiple bolus regimen). In a second cohort, an infusion pump was surgically installed in the animals to facilitate continuous infusion of coenzyme Q10 at a total dose of 75 mg/kg body weight per day. Treatment was continued throughout the entire duration of the study.

[4] = tested on: lung chloromas (MIA C51 clone); assay: Lung chloroma rat model, survival; type: in vivo, rats; details: continuous infusion vs injection 3 times a day, 50 mg/kg per day
Excerpt: The effect of dosing schedule of coenzyme Q10 was also investigated in rats bearing liver or lung chloromas. Rats were transplanted with liver or lung clones of malignant chloromas derived from a stable myelogenous leukemia (chloroleukemia) cell line, MIA C51 (see. e.g., Jimenez and Yunis (1987) Science 238: 1278-1280). The clones have been selected to home to and form tumors in the liver or lungs, respectively. Rats were randomized to receive either no treatment, injection 3 times a day with 40 mg/mL (4%) coenzyme Q10, or continuous infusion of 40 mg/mL (4%) coenzyme Q10 via an implanted pump, to deliver for each regimen a total dose of 50 mg/kg body weight per day. […] For example, at Day 189 in the liver chloroma model, 45 of 50 rats were alive in the continuous infusion treatment group compared with 26 of 50 rats alive in the injection treatment group. All control animals were dead at Day 30.

[5] = First-in-human Phase 1 study (CTL0510), 4-hour IV infusion 3 times weekly: safety
Procedure: The first-in-human Phase 1 study with coenzyme Q10 nanosuspension (40 mg/ml) was conducted in 50 patients with advanced solid tumors. The objectives were to assess the safety, maximum tolerated dose, PK and PD of coenzyme Q10, specifically a 4% coenzyme Q10 nanosuspension formulation (as described in WO 2011/112900, the entire contents of which are expressly incorporated herein by reference), administered as a 4-hour IV infusion 3 times weekly in 28-day cycles. Nine dose levels were explored ranting from 5.62 to 139 mg/kg. Plasma concentration profiles and PK parameters were determined from blood samples collected pre-dose and at intervals to 48 hours post-dose.

[6] = tested on: chloroleukemia (MIA C51); details: IP

Substance: coenzyme Q10
- cell viability [1]: decrease in cell viability
- survival ([2]; coenzyme Q10 alone, once/twice/thrice daily 50 mg/kg (or 75 mg/kg), vs untreated or chemotherapy alone): increase in survival
- survival rates ([2]; coenzyme Q10 in combination with gemcitabine 150 mg/kg): higher survival rates than coenzyme Q10 alone or gemcitabine alone
- survival rates ([2]; continuous infusion): higher survival rates than those treated with continuous infusion of 50 mg/kg or 25 mg/kg
- survival rate ([2]; continuous infusion 25 mg/kg body weight per day vs 50 mg/kg three times per day): higher survival rate
- animal survival ([2]; increasing 50 mg/kg doses from once/daily to three times per day): significant improvement in animal survival
- survival rate ([3]; continuous infusion 75 mg/kg body weight per day vs multiple bolus regimen): even higher survival rate
- survival rate ([3]; multiple bolus regimen, total 75 mg/kg body weight per day (25 mg/kg every 8 hours)): higher survival rate than the untreated control
- effectiveness of continuous infusion regimen [4]: much more effective than the injection regimen
- serious adverse events (bleeding) resulting in the patient's death due to hemothorax ([5]; 104.3 mg/kg dose level): One
- AST increased, laboratory AE ([5]; in vivo): 8%
- CTCAE grade of the majority of adverse events ([5]; in vivo): grade 1 or 2
- PTT prolonged, laboratory AE ([5]; in vivo): 80%
- SAEs reported as possibly related to coenzyme Q10 ([5]; in vivo): Two
- alkaline phosphatase increased, laboratory AE ([5]; in vivo): 2%
- arthritis, AE related to coenzyme Q10 ([5]; in vivo): 4%
- chills, AE related to coenzyme Q10 ([5]; in vivo): 6%
- dose limiting toxicities (DLTs) ([5]; in vivo): no dose limiting toxicities (DLTs) were identified
- fatigue, AE related to coenzyme Q10 ([5]; in vivo): 24%
- fever, AE related to coenzyme Q10 ([5]; in vivo): 8%
- headache, AE related to coenzyme Q10 ([5]; in vivo): 10%
- increased INR considered related to coenzyme Q10 ([5]; in vivo): 68%
- nausea, AE related to coenzyme Q10 ([5]; in vivo): 8%
- patients who died due to disease progression or intercurrent illness during the study ([5]; in vivo): Twenty
- patients who discontinued treatment due to AEs reported as unrelated to treatment ([5]; in vivo): Four
- patients who experienced abnormal INR values ([5]; in vivo): 38 patients
- patients with clinically significant increased INR ([5]; in vivo): 14 patients
- platelet count decreased, laboratory AE ([5]; in vivo): 14%
- vital signs or physical examination findings ([5]; in vivo): No clinically significant changes
- survival in animals with metastasis to the lungs and liver ([6]; 50 mg/kg/day): significant increase in survival
- limb paralysis (paraplegia due to brain metastasis) ([6]; (St) mg/kg/day): complete resolution of limb paralysis
